The source of these data is patent publication US8575170B2, “Flurbiprofen analogs and methods of use in treating cancer” (The Regents of the Unversity of Colorado, a body corporate, priority 2010, dated 2013).

Assay [1] deals with MiaPaCa pancreatic carcinoma solid tumor xenograft. Nature of the assay: MiaPaCa pancreatic carcinoma xenograft in nude mice. The note with it: 5 mg/kg/every day intraperitoneal, beginning on the eleventh day following implantation, FIG. 12. The assay is classed as in vivo, athymic nude mice. As to the method: Similar results were obtained when the treatment method was applied to animals having pancreatic carcinoma implants, as shown in FIG. 12.
In a second study, athymic nude mice were implanted subcutaneously with suspensions of approximately 2 million MiaPaCa pancreatic carcinoma cells, in Matrigel suspension. […] The compound was initially dissolved in dimethyl sulfoxide (DMSO) and diluted with medium. Tumor size was measured with a caliper three times per week, and tumor volume calculated as above. At autopsy, tumors were removed and weighed.

Another assay has as its system H322C. Nature of the assay: MTT cell viability, H322C. The settings on record: 96 h; Adenocarcinoma lung cell line H322C; 4 days incubation. It counts as cell-based. As to the method:
(§1) The ability of the flurbiprofen analog compounds of the invention to inhibit cancer cell growth and survival (viability) in a variety of cancer lines was examined in a standard MTT assay for cell viability, as detailed in Example 2.
(§2) The studies reported in Tables 1-3 above were carried out by incubating the cells in the test compound for four days, under standard cell-culture conditions, and measuring cell survival on day 5 (see Example 2).
(§3) Cell growth and survival following treatment with N—[(S)-2-Fluoro-α-methyl-4-biphenylacetyl]-[L-(4-phenylphenyl)alanine]-N-(2,2,6,6-tetramethyl-4-piperidinyl)amide (GCBH-110=B1031; (S)-Fmba-L-Bip-Atmp) were measured by a rapid colorimetric assay based on the tetrazolium salt MTT (3-(4,5-dimethylthiazol-2-yl)-2,5-diphenyl tetrazolium bromide) (Mosmann, J. Immunol. Methods 65: 55-63, 1983, with minor modifications).
(§4) Briefly, approximately 1,000-5,000 cancer cells from 15 different cancer cells lines were plated in 100 μL of growth medium in 96-well flat-bottomed microtiter plates. Cells were incubated overnight to allow recovery. Compounds to be tested were added to the cells in triplicate in a range of concentrations and the cells were incubated at 37° C., 5% CO2, with 100% humidity. Control cells were treated in the same way without antagonists. […] Absorbance was immediately determined using a scanning multiwell plate reader.

The subject of the next assay is A549. Nature of the assay: MTT cell viability, A549. The assay is classed as cell-based. The settings on record: Homo sapiens, 96 h; Adenocarcinoma lung cell line A549; 4 days incubation. As to the method: as §1, §2, §3, §4
The next assay has as its system H290. In words: MTT cell viability, H290. The note with it: NCI-H290, 96 h; Mesothelioma lung cell line H290; 4 days incubation. The assay is classed as cell-based. As to the method: as §1, §2, §3, §4
A further assay deals with H226. In words: MTT cell viability, H226. The assay is classed as cell-based. The note with it: Homo sapiens, NCI-H226, 96 h; Squamous Mesothelioma lung cell line H226; 4 days incubation. As for the experimental part: as §1, §2, §3, §4
A further assay has as its system Panc-327. Nature of the assay: MTT cell viability, Panc-327. It counts as cell-based. The settings on record: Pancreatic cancer cell, 96 h; Pancreatic cancer cells Panc-327; 4 days incubation.
Text: as §1
(§5) Similar results were obtained for the effect of the B1031 compound on the 14 pancreatic tumor cells lines shown in Table 3 below, where the dose dependent effect of the compound on survival of the pancreatic cancer cell lines is shown in FIG. 5.
as §2, §3
(§6) Briefly, approximately 1,000-5,000 cancer cells from 15 different cancer cells lines were plated in 100 μL of growth medium in 96-well flat-bottomed microtiter plates. Cells were incubated overnight to allow recovery. […] Absorbance was immediately determined using a scanning multiwell plate reader.

Assay [2] has as its system pancreatic cancer cell lines. Nature of the assay: MTT cell viability, panel of pancreatic cancer cell lines. It counts as cell-based.
Text: as §1, §5, §3
Briefly, approximately 1,000-5,000 cancer cells from 15 different cancer cells lines were plated in 100 μL of growth medium in 96-well flat-bottomed microtiter plates. Cells were incubated overnight to allow recovery. Compounds to be tested were added to the cells in triplicate in a range of concentrations and the cells were incubated at 37° C., 5% CO2, with 100% humidity. […] Absorbance was immediately determined using a scanning multiwell plate reader.

Assay [3] deals with BTIC EF12 brain tumor initiating stem cells. In words: Inhibition of BTIC EF12 brain tumor initiating stem cells. It counts as cell-based. The note with it: at 10 μM, FIG. 6B. As for the experimental part:
(§7) FIGS. 6A and 6B show the loss in cell viability in HT-29 colon cancer cells, in response to increasing concentrations of GH 502 (GCBH 118) (FIG. 6A), and the effect of various treatments, including increasing concentration of GH501 (GCBH 110) on U251 malignant glioma cells and BTIC EF12 brain tumor initiating stem cells (FIG. 6B).
(§8) The study shown in FIG. 6A examined the effect of GCBH-118 (GH502) on an HT-29 colon cancer cell, showing an IC50 value of about 1 μM. […] The graph indicates an IC50 value for the B1031 compound against the U251 brain cancer cell line of between 2 and 10 μM.

In the next assay the test system is Panc-813. In words: MTT cell viability, Panc-813. The settings on record: Pancreatic cancer cell, 96 h; Pancreatic cancer cells Panc-813; 4 days incubation. The assay is classed as cell-based.
Text: as §1, §5, §2, §3, §6

In assay [4] the test system is U251 malignant glioma cells. In words: Inhibition of U251 malignant glioma cells. The assay is classed as cell-based. The note with it: Homo sapiens, U-251; U251 brain cancer cell line, FIG. 6B. As to the method: as §7, §8
The test system of another assay is H441. Nature of the assay: MTT cell viability, H441. The assay is classed as cell-based. The note with it: Homo sapiens, NCI-H441, 96 h; Adenocarcinoma lung cell line H441; 4 days incubation. As for the experimental part: as §1, §2, §3, §4
In a further assay the test system is H2122 cells. Nature of the assay: Cell cycle phase distribution in H2122 cells. The assay is classed as cell-based. The settings on record: six concentrations, 24, 48 and 72 hours, FIG. 10. As for the experimental part: FIG. 10 is a plot showing the percentages of H122 cells G1, S, and G2 cycle at […], and 72 hours, as a function of B1031 concentration in the cell medium.
FIG. 10 provides an explanation of the time-dependent IC50 values observed in FIG. 7, and insight into the mechanism by which the compounds of the invention exert their anti-cancer effect. In the study shown in FIG. 10, H2122 cells were cultured in the presence of one of the six concentrations of the B1031 compound, as indicated in the figure. At time periods 24, 48, and 72 hours after incubation with the compound, cells from each of the six cultures (having increasing concentrations of the compound), were examined for percent cells in G1, S, or G2 cell phase.

A further assay relates to Panc-504. In words: MTT cell viability, Panc-504. The assay is classed as cell-based. The note with it: Pancreatic cancer cell, 96 h; Pancreatic cancer cells Panc-504; 4 days incubation.
Text: as §1, §5, §2, §3, §6

A further assay deals with WM375. In words: MTT cell viability, WM375. The assay is classed as cell-based. The settings on record: Melanoma cell line WM375.
Text: as §1
The results for the several cell lines above were also consistent with IC50 values measured for two melanoma cell lines shown in Table 4 below.
as §3, §4

A further assay deals with H513. Nature of the assay: MTT cell viability, H513. The note with it: 96 h; Mesothelioma lung cell line H513; 4 days incubation. The assay is classed as cell-based. As to the method: as §1, §2, §3, §4
The subject of another assay is H1334. Nature of the assay: MTT cell viability, H1334. It counts as cell-based. The note with it: 96 h; Large Cell lung cell line H1334; 4 days incubation. As to the method: as §1, §2, §3, §4
The test system of another assay is MiaPaCa. In words: MTT cell viability, MiaPaCa. The assay is classed as cell-based. The note with it: Homo sapiens, MIA PaCa-2, 96 h; Pancreatic cancer cells MiaPaCa; 4 days incubation.
Text: as §1, §5, §2, §3, §6

For a further assay, the system named is L36. In words: MTT cell viability, L36. The assay is classed as cell-based. The note with it: Pancreatic cancer cell, 96 h; Pancreatic cancer cells L36; 4 days incubation.
Text: as §1, §5, §2, §3, §6

Where two headings read alike, the source gives them in different places.

By IC50 is commonly meant the midpoint of a concentration-inhibition curve.

On to `C[C@H](C(=O)N[C@@H](Cc1ccc(-c2ccccc2)cc1)C(=O)NC1CC(C)(C)NC(C)(C)C1)c1ccc(-c2ccccc2)c(F)c1` [GCBH-110, N—[(S)-2-Fluoro-α-methyl-4-biphenylacetyl]-[L-(4-phenylphenyl)alanine]-N-(2,2,6,6-tetramethyl-4-piperidinyl)amide], for which, in [1], the “inhibition of MiaPaCa pancreatic carcinoma tumor growth” value came to 66%. Moreover, the IC50 was 450 nM in the assay on H322C; 550 nM in the assay on A549; 1300 nM in the assay on H290; 203 nM in the assay with H226; 670 nM with Panc-327; not above 700 nM in assay [2] (majority of the pancreatic cell lines, read-out: IC50, majority of the cell lines). The half-inhibitory concentration (IC50) in assay [2] (span over 14 pancreatic tumor cell lines, Table 3, FIG. 5, read-out: IC50 values) is 160 to 3100 nM; in the assay on Panc-813, 3100 nM; in assay [4], 2000 to 10000 nM; with H441 it was 1600 nM; with Panc-504, 160 nM; in the assay on WM375, 280 nM. In addition, the IC50 in the assay with H513 turned out to be 1800 nM; in the assay with H1334 it was 400 nM; in the assay on MiaPaCa it was 740 nM; with L36, 600 nM. In addition, in assay [3], the “compound inhibition of the BTIC EF12 cells” value was “inhibition”. Moreover, the “percent cells in G1, S, or G2 cell phase” value in the assay on H2122 cells is “marked shift of the cell populations away from the S and G2 phases to the G1 phase”.
